Measurements published in PubChem BioAssay (NCI).
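Protocol summary: plate cells (96-well), add compound at 5 concentrations, incubate 48 h, interpolate endpoints linearly. TGI: total growth inhibition.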

System: MDA-MB-231 breast
Assay: DTP human tumour cell line panel, 48 h

SMILES	TGI [µM]
CNc1nc2n(CCO)c(-c3ccccc3)c(-c3ccccc3)nc-2c(=O)n1	> 50
NC(CCC(=O)O)C(=O)N1CCN(c2nc(N3CCCC3)c3nc(Cl)c(NCc4ccccc4)nc3n2)CC1 (stereo not given)	31.2
CN1C2CCC1CC(CCNC(c1ccccc1)c1ccccc1)C2 (stereo not given)	72.4
CC1ON2CCCC2[C@H]1C(=O)N1C2CC3CCC2(CS1(=O)=O)C3(C)C (stereo not given in full)	> 100
O=C1O/C(=C(/Br)c2ccc(Cl)c(Cl)c2)c2ccccc21	> 10
CN(C)/C=N/S(=O)(=O)c1nn2c(C=O)c(-c3ccc(Cl)cc3)nc2s1	7.77
COc1ccc(C2=Nn3c(nnc(Cc4ccc(Cl)cc4)c3=O)SC2)cc1	> 100
COC1(OC)CC(CO)(CNc2nc(N)nc(Cl)c2/C=N\O)C1	> 100
O=C1CCCC2(c3ccccc3)Nc3ccccc3N12 (stereo not given)	> 100
Cc1ccc(/C=C2\CCC/C(=C\c3ccc(O)c(CN4CCCCC4)c3)C2=O)cc1	22.3
COC(=O)CCc1cc(O)c2c(c1)C(C(=O)OC)C(c1ccc(O)c(O)c1)O2 (stereo not given)	> 100
Cc1ccc2c(c1)C1(C)OC(C=CC1=O)O2 (stereo not given)	0.745

System: NCI-H460 lung
Assay: DTP human tumour cell line panel, 48 h

SMILES	TGI [µM]
CNc1nc2n(CCO)c(-c3ccccc3)c(-c3ccccc3)nc-2c(=O)n1	> 50
NC(CCC(=O)O)C(=O)N1CCN(c2nc(N3CCCC3)c3nc(Cl)c(NCc4ccccc4)nc3n2)CC1 (stereo not given)	24.9
CN1C2CCC1CC(CCNC(c1ccccc1)c1ccccc1)C2 (stereo not given)	> 100
CC1ON2CCCC2[C@H]1C(=O)N1C2CC3CCC2(CS1(=O)=O)C3(C)C (stereo not given in full)	> 100
O=C1O/C(=C(/Br)c2ccc(Cl)c(Cl)c2)c2ccccc21	> 10
CN(C)/C=N/S(=O)(=O)c1nn2c(C=O)c(-c3ccc(Cl)cc3)nc2s1	22.4
COc1ccc(C2=Nn3c(nnc(Cc4ccc(Cl)cc4)c3=O)SC2)cc1	> 100
COC1(OC)CC(CO)(CNc2nc(N)nc(Cl)c2/C=N\O)C1	> 100
O=C1CCCC2(c3ccccc3)Nc3ccccc3N12 (stereo not given)	> 100
Cc1ccc(/C=C2\CCC/C(=C\c3ccc(O)c(CN4CCCCC4)c3)C2=O)cc1	20
COC(=O)CCc1cc(O)c2c(c1)C(C(=O)OC)C(c1ccc(O)c(O)c1)O2 (stereo not given)	> 62.8
Cc1ccc2c(c1)C1(C)OC(C=CC1=O)O2 (stereo not given)	6.03

System: NCI-H522 lung
Assay: DTP human tumour cell line panel, 48 h

SMILES	TGI [µM]
CNc1nc2n(CCO)c(-c3ccccc3)c(-c3ccccc3)nc-2c(=O)n1	> 50
NC(CCC(=O)O)C(=O)N1CCN(c2nc(N3CCCC3)c3nc(Cl)c(NCc4ccccc4)nc3n2)CC1 (stereo not given)	34.5
CN1C2CCC1CC(CCNC(c1ccccc1)c1ccccc1)C2 (stereo not given)	85.7
CC1ON2CCCC2[C@H]1C(=O)N1C2CC3CCC2(CS1(=O)=O)C3(C)C (stereo not given in full)	> 100
O=C1O/C(=C(/Br)c2ccc(Cl)c(Cl)c2)c2ccccc21	> 10
CN(C)/C=N/S(=O)(=O)c1nn2c(C=O)c(-c3ccc(Cl)cc3)nc2s1	2.12
COc1ccc(C2=Nn3c(nnc(Cc4ccc(Cl)cc4)c3=O)SC2)cc1	> 100
COC1(OC)CC(CO)(CNc2nc(N)nc(Cl)c2/C=N\O)C1	> 100
O=C1CCCC2(c3ccccc3)Nc3ccccc3N12 (stereo not given)	> 100
Cc1ccc(/C=C2\CCC/C(=C\c3ccc(O)c(CN4CCCCC4)c3)C2=O)cc1	17.9
COC(=O)CCc1cc(O)c2c(c1)C(C(=O)OC)C(c1ccc(O)c(O)c1)O2 (stereo not given)	> 100
Cc1ccc2c(c1)C1(C)OC(C=CC1=O)O2 (stereo not given)	0.239

System: OVCAR-5 ovarian
Assay: DTP human tumour cell line panel, 48 h

SMILES	TGI [µM]
CNc1nc2n(CCO)c(-c3ccccc3)c(-c3ccccc3)nc-2c(=O)n1	> 50
NC(CCC(=O)O)C(=O)N1CCN(c2nc(N3CCCC3)c3nc(Cl)c(NCc4ccccc4)nc3n2)CC1 (stereo not given)	33.5
CN1C2CCC1CC(CCNC(c1ccccc1)c1ccccc1)C2 (stereo not given)	> 100
CC1ON2CCCC2[C@H]1C(=O)N1C2CC3CCC2(CS1(=O)=O)C3(C)C (stereo not given in full)	> 100
O=C1O/C(=C(/Br)c2ccc(Cl)c(Cl)c2)c2ccccc21	> 10
CN(C)/C=N/S(=O)(=O)c1nn2c(C=O)c(-c3ccc(Cl)cc3)nc2s1	5.55
COc1ccc(C2=Nn3c(nnc(Cc4ccc(Cl)cc4)c3=O)SC2)cc1	> 100
COC1(OC)CC(CO)(CNc2nc(N)nc(Cl)c2/C=N\O)C1	> 100
O=C1CCCC2(c3ccccc3)Nc3ccccc3N12 (stereo not given)	> 100
Cc1ccc(/C=C2\CCC/C(=C\c3ccc(O)c(CN4CCCCC4)c3)C2=O)cc1	38.9
COC(=O)CCc1cc(O)c2c(c1)C(C(=O)OC)C(c1ccc(O)c(O)c1)O2 (stereo not given)	> 100
Cc1ccc2c(c1)C1(C)OC(C=CC1=O)O2 (stereo not given)	4.46

System: RPMI-8226 leukemia
Assay: DTP human tumour cell line panel, 48 h

SMILES	TGI [µM]
CNc1nc2n(CCO)c(-c3ccccc3)c(-c3ccccc3)nc-2c(=O)n1	> 50
NC(CCC(=O)O)C(=O)N1CCN(c2nc(N3CCCC3)c3nc(Cl)c(NCc4ccccc4)nc3n2)CC1 (stereo not given)	34.3
CN1C2CCC1CC(CCNC(c1ccccc1)c1ccccc1)C2 (stereo not given)	56.1
CC1ON2CCCC2[C@H]1C(=O)N1C2CC3CCC2(CS1(=O)=O)C3(C)C (stereo not given in full)	> 100
O=C1O/C(=C(/Br)c2ccc(Cl)c(Cl)c2)c2ccccc21	> 10
CN(C)/C=N/S(=O)(=O)c1nn2c(C=O)c(-c3ccc(Cl)cc3)nc2s1	4.22
COc1ccc(C2=Nn3c(nnc(Cc4ccc(Cl)cc4)c3=O)SC2)cc1	> 100
COC1(OC)CC(CO)(CNc2nc(N)nc(Cl)c2/C=N\O)C1	> 100
O=C1CCCC2(c3ccccc3)Nc3ccccc3N12 (stereo not given)	> 100
Cc1ccc(/C=C2\CCC/C(=C\c3ccc(O)c(CN4CCCCC4)c3)C2=O)cc1	> 100
COC(=O)CCc1cc(O)c2c(c1)C(C(=O)OC)C(c1ccc(O)c(O)c1)O2 (stereo not given)	> 92.9
Cc1ccc2c(c1)C1(C)OC(C=CC1=O)O2 (stereo not given)	1.65

System: SF-295 CNS
Assay: DTP human tumour cell line panel, 48 h

SMILES	TGI [µM]
CNc1nc2n(CCO)c(-c3ccccc3)c(-c3ccccc3)nc-2c(=O)n1	> 50
NC(CCC(=O)O)C(=O)N1CCN(c2nc(N3CCCC3)c3nc(Cl)c(NCc4ccccc4)nc3n2)CC1 (stereo not given)	26.7
CN1C2CCC1CC(CCNC(c1ccccc1)c1ccccc1)C2 (stereo not given)	49
CC1ON2CCCC2[C@H]1C(=O)N1C2CC3CCC2(CS1(=O)=O)C3(C)C (stereo not given in full)	> 100
O=C1O/C(=C(/Br)c2ccc(Cl)c(Cl)c2)c2ccccc21	> 10
CN(C)/C=N/S(=O)(=O)c1nn2c(C=O)c(-c3ccc(Cl)cc3)nc2s1	28.2
COc1ccc(C2=Nn3c(nnc(Cc4ccc(Cl)cc4)c3=O)SC2)cc1	> 100
COC1(OC)CC(CO)(CNc2nc(N)nc(Cl)c2/C=N\O)C1	> 100
O=C1CCCC2(c3ccccc3)Nc3ccccc3N12 (stereo not given)	> 100
Cc1ccc(/C=C2\CCC/C(=C\c3ccc(O)c(CN4CCCCC4)c3)C2=O)cc1	26
COC(=O)CCc1cc(O)c2c(c1)C(C(=O)OC)C(c1ccc(O)c(O)c1)O2 (stereo not given)	97
Cc1ccc2c(c1)C1(C)OC(C=CC1=O)O2 (stereo not given)	11.9

System: SF-539 CNS
Assay: DTP human tumour cell line panel, 48 h

SMILES	TGI [µM]
CNc1nc2n(CCO)c(-c3ccccc3)c(-c3ccccc3)nc-2c(=O)n1	> 50
NC(CCC(=O)O)C(=O)N1CCN(c2nc(N3CCCC3)c3nc(Cl)c(NCc4ccccc4)nc3n2)CC1 (stereo not given)	28.5
CN1C2CCC1CC(CCNC(c1ccccc1)c1ccccc1)C2 (stereo not given)	35.7
CC1ON2CCCC2[C@H]1C(=O)N1C2CC3CCC2(CS1(=O)=O)C3(C)C (stereo not given in full)	> 100
O=C1O/C(=C(/Br)c2ccc(Cl)c(Cl)c2)c2ccccc21	> 10
CN(C)/C=N/S(=O)(=O)c1nn2c(C=O)c(-c3ccc(Cl)cc3)nc2s1	5.21
COc1ccc(C2=Nn3c(nnc(Cc4ccc(Cl)cc4)c3=O)SC2)cc1	> 100
COC1(OC)CC(CO)(CNc2nc(N)nc(Cl)c2/C=N\O)C1	> 100
O=C1CCCC2(c3ccccc3)Nc3ccccc3N12 (stereo not given)	> 100
Cc1ccc(/C=C2\CCC/C(=C\c3ccc(O)c(CN4CCCCC4)c3)C2=O)cc1	26.6
COC(=O)CCc1cc(O)c2c(c1)C(C(=O)OC)C(c1ccc(O)c(O)c1)O2 (stereo not given)	32.9
Cc1ccc2c(c1)C1(C)OC(C=CC1=O)O2 (stereo not given)	1.27

System: SK-MEL-28 melanoma
Assay: DTP human tumour cell line panel, 48 h

SMILES	TGI [µM]
CNc1nc2n(CCO)c(-c3ccccc3)c(-c3ccccc3)nc-2c(=O)n1	> 50
NC(CCC(=O)O)C(=O)N1CCN(c2nc(N3CCCC3)c3nc(Cl)c(NCc4ccccc4)nc3n2)CC1 (stereo not given)	27.7
CN1C2CCC1CC(CCNC(c1ccccc1)c1ccccc1)C2 (stereo not given)	34.2
CC1ON2CCCC2[C@H]1C(=O)N1C2CC3CCC2(CS1(=O)=O)C3(C)C (stereo not given in full)	> 100
O=C1O/C(=C(/Br)c2ccc(Cl)c(Cl)c2)c2ccccc21	> 10
CN(C)/C=N/S(=O)(=O)c1nn2c(C=O)c(-c3ccc(Cl)cc3)nc2s1	3.33
COc1ccc(C2=Nn3c(nnc(Cc4ccc(Cl)cc4)c3=O)SC2)cc1	> 100
COC1(OC)CC(CO)(CNc2nc(N)nc(Cl)c2/C=N\O)C1	> 100
O=C1CCCC2(c3ccccc3)Nc3ccccc3N12 (stereo not given)	> 100
Cc1ccc(/C=C2\CCC/C(=C\c3ccc(O)c(CN4CCCCC4)c3)C2=O)cc1	> 53.5
COC(=O)CCc1cc(O)c2c(c1)C(C(=O)OC)C(c1ccc(O)c(O)c1)O2 (stereo not given)	> 100
Cc1ccc2c(c1)C1(C)OC(C=CC1=O)O2 (stereo not given)	2.03

System: TK-10 renal
Assay: DTP human tumour cell line panel, 48 h

SMILES	TGI [µM]
CNc1nc2n(CCO)c(-c3ccccc3)c(-c3ccccc3)nc-2c(=O)n1	> 50
NC(CCC(=O)O)C(=O)N1CCN(c2nc(N3CCCC3)c3nc(Cl)c(NCc4ccccc4)nc3n2)CC1 (stereo not given)	31
CN1C2CCC1CC(CCNC(c1ccccc1)c1ccccc1)C2 (stereo not given)	55
CC1ON2CCCC2[C@H]1C(=O)N1C2CC3CCC2(CS1(=O)=O)C3(C)C (stereo not given in full)	> 100
O=C1O/C(=C(/Br)c2ccc(Cl)c(Cl)c2)c2ccccc21	> 10
CN(C)/C=N/S(=O)(=O)c1nn2c(C=O)c(-c3ccc(Cl)cc3)nc2s1	2.88
COc1ccc(C2=Nn3c(nnc(Cc4ccc(Cl)cc4)c3=O)SC2)cc1	> 100
COC1(OC)CC(CO)(CNc2nc(N)nc(Cl)c2/C=N\O)C1	> 100
O=C1CCCC2(c3ccccc3)Nc3ccccc3N12 (stereo not given)	> 100
Cc1ccc(/C=C2\CCC/C(=C\c3ccc(O)c(CN4CCCCC4)c3)C2=O)cc1	37.9
COC(=O)CCc1cc(O)c2c(c1)C(C(=O)OC)C(c1ccc(O)c(O)c1)O2 (stereo not given)	> 100
Cc1ccc2c(c1)C1(C)OC(C=CC1=O)O2 (stereo not given)	5.5

System: UO-31 renal
Assay: DTP human tumour cell line panel, 48 h

SMILES	TGI [µM]
CNc1nc2n(CCO)c(-c3ccccc3)c(-c3ccccc3)nc-2c(=O)n1	> 50
NC(CCC(=O)O)C(=O)N1CCN(c2nc(N3CCCC3)c3nc(Cl)c(NCc4ccccc4)nc3n2)CC1 (stereo not given)	21.6
CN1C2CCC1CC(CCNC(c1ccccc1)c1ccccc1)C2 (stereo not given)	56.5
CC1ON2CCCC2[C@H]1C(=O)N1C2CC3CCC2(CS1(=O)=O)C3(C)C (stereo not given in full)	> 100
O=C1O/C(=C(/Br)c2ccc(Cl)c(Cl)c2)c2ccccc21	> 10
CN(C)/C=N/S(=O)(=O)c1nn2c(C=O)c(-c3ccc(Cl)cc3)nc2s1	2.18
COc1ccc(C2=Nn3c(nnc(Cc4ccc(Cl)cc4)c3=O)SC2)cc1	> 100
COC1(OC)CC(CO)(CNc2nc(N)nc(Cl)c2/C=N\O)C1	> 100
O=C1CCCC2(c3ccccc3)Nc3ccccc3N12 (stereo not given)	> 100
Cc1ccc(/C=C2\CCC/C(=C\c3ccc(O)c(CN4CCCCC4)c3)C2=O)cc1	23.3
COC(=O)CCc1cc(O)c2c(c1)C(C(=O)OC)C(c1ccc(O)c(O)c1)O2 (stereo not given)	> 100
Cc1ccc2c(c1)C1(C)OC(C=CC1=O)O2 (stereo not given)	2.36
